The values below come from patent US12552825B2 (Zikani Therapeutics, Inc., priority 2019, dated 2026).

What all share (format): cell-based
One experiment has as its system A. baumannii MP-15. As to the kind of experiment: MIC determination by CLSI broth dilution, A. baumannii MP-15. As to conditions: Acinetobacter baumannii, MP15, strain MP-15, read-out: MIC A. baumanii MP-15.
Another experiment deals with K. pneumoniae MP-546. In words: MIC determination by CLSI broth dilution, K. pneumoniae MP-546. As to conditions: Klebsiella pneumoniae, MP546, CLSI broth dilution; strain MP-546.
For a further experiment, the system named is S. aureus MP-12. In words: microbe, parasite or virus in culture. As to conditions: Staphylococcus aureus, MP12, read-out: MIC S. aureus MP-12.
A further experiment relates to P. aeruginosa MP-3. In words: MIC determination by CLSI broth dilution, P. aeruginosa MP-3. As to conditions: Pseudomonas aeruginosa, MP3, strain MP-3.
Another experiment concerns E. coli MP-4. In words: MIC determination by CLSI broth dilution, E. coli MP-4. The following applies: Escherichia coli, MP4, CLSI broth dilution; strain MP-4.
The subject of the next experiment is K. pneumoniae MP-648. In words: MIC determination by CLSI broth dilution, K. pneumoniae MP-648. As to conditions: Klebsiella pneumoniae, MP648, CLSI broth dilution; strain MP-648.

Converted amounts (≈) assume the structure as drawn.

In the case of `CCN1C[C@H](C)C[C@@](C)(OC)[C@H](O[C@@H]2O[C@H](C)C[C@H](N(C)C)[C@H]2O)[C@@H](C)C(=O)C(C)(C)C(=O)OC[C@H]1CC1CCN(C)CC1` [Compound 98, (3R,6R,8R,9R,10R)-9-(((2S,3R,4S,6R)-4-(dimethylamino)-3-hydroxy-6-methyltetrahydro-2H-pyran-2-yl)oxy)-4-ethyl-8-methoxy-6,8,10,12,12-pentamethyl-3-((1-methylpiperidin-4-yl)methyl)-1-oxa-4-azacyclotridecane-11,13-dione], the MIC in the experiment on A. baumannii MP-15 was > 32 µg/mL; with K. pneumoniae MP-546 it was < 4 µg/mL; in the experiment with S. aureus MP-12, 4 to 32 µg/mL (≈ 6.39 to 51.1 µM); in the experiment on P. aeruginosa MP-3, > 32 µg/mL; in the experiment on E. coli MP-4 it was < 4 µg/mL; against K. pneumoniae MP-648, < 4 µg/mL.
Turning to `CO[C@]1(C)C[C@@H](C)CN(C)[C@H](CC2CCNCC2)COC(=O)C(C)(C)C(=O)[C@H](C)[C@H]1O[C@@H]1O[C@H](C)C[C@H](N(C)C)[C@H]1O` [Compound 51], the MIC is > 32 µg/mL in the experiment on A. baumannii MP-15; > 32 µg/mL in the experiment with K. pneumoniae MP-546; > 32 µg/mL in the experiment with S. aureus MP-12; > 32 µg/mL with P. aeruginosa MP-3; 4 to 32 µg/mL (≈ 6.69 to 53.5 µM) in the experiment on E. coli MP-4; > 32 µg/mL in the experiment on K. pneumoniae MP-648.
In the case of `CCCN1CCC([C@@H](O)[C@H]2COC(=O)C(C)(C)C(=O)[C@H](C)[C@@H](O[C@@H]3O[C@H](C)C[C@H](N(C)C)[C@H]3O)[C@](C)(OC)C[C@@H](C)CN2C)CC1` [Compound 24], the MIC is > 32 µg/mL with A. baumannii MP-15; 4 to 32 µg/mL (≈ 6.1 to 48.8 µM) against K. pneumoniae MP-546; 4 to 32 µg/mL (≈ 6.1 to 48.8 µM) in the experiment with S. aureus MP-12; > 32 µg/mL in the experiment on P. aeruginosa MP-3; 4 to 32 µg/mL (≈ 6.1 to 48.8 µM) in the experiment with E. coli MP-4; > 32 µg/mL with K. pneumoniae MP-648.
Take `CCN1C[C@H](C)C[C@@](C)(OC)[C@H](O[C@@H]2O[C@H](C)C[C@H](N(C)C)[C@H]2O)[C@@H](C)C(=O)C(C)(C)C(=O)OC[C@H]1CCCN1CCCC1` [Compound 113, (3R,6R,8R,9R,10R)-9-(((2S,3R,4S,6R)-4-(dimethylamino)-3-hydroxy-6-methyltetrahydro-2H-pyran-2-yl)oxy)-4-ethyl-8-methoxy-6,8,10,12,12-pentamethyl-3-(3-(pyrrolidin-1-yl)propyl)-1-oxa-4-azacyclotridecane-11,13-dione]: the MIC in the experiment with A. baumannii MP-15 was > 32 µg/mL; with K. pneumoniae MP-546, < 4 µg/mL; with S. aureus MP-12, < 4 µg/mL; against P. aeruginosa MP-3, > 32 µg/mL; in the experiment on E. coli MP-4, < 4 µg/mL; with K. pneumoniae MP-648 it was < 4 µg/mL.
On to `CCCN1CC=C(C[C@@H]2COC(=O)C(C)(C)C(=O)[C@H](C)[C@@H](O[C@@H]3O[C@H](C)C[C@H](N(C)C)[C@H]3O)[C@](C)(OC)C[C@@H](C)CN2C)CC1` [Compound 59], for which the MIC with A. baumannii MP-15 was > 32 µg/mL; against K. pneumoniae MP-546, < 4 µg/mL; in the experiment with S. aureus MP-12, < 4 µg/mL; against P. aeruginosa MP-3 it was > 32 µg/mL; with E. coli MP-4 it was < 4 µg/mL; in the experiment with K. pneumoniae MP-648 it was 4 to 32 µg/mL (≈ 6.27 to 50.2 µM).
For the compound `CCCN1CCC(C[C@@H]2COC(=O)C(C)(C)C(=O)[C@H](C)[C@@H](O[C@@H]3O[C@H](C)C[C@H](N(C)C)[C@H]3O)[C@](C)(OC)C[C@@H](C)CN2CCC)CC1` [Compound 96, (3R,6R,8R,9R,10R)-9-(((2S,3R,4S,6R)-4-(dimethylamino)-3-hydroxy-6-methyltetrahydro-2H-pyran-2-yl)oxy)-8-methoxy-6,8,10,12,12-pentamethyl-4-propyl-3-((1-propylpiperidin-4-yl)methyl)-1-oxa-4-azacyclotridecane-11,13-dione], the MIC was > 32 µg/mL with A. baumannii MP-15; < 4 µg/mL against K. pneumoniae MP-546; 4 to 32 µg/mL (≈ 5.99 to 47.9 µM) in the experiment on S. aureus MP-12; > 32 µg/mL in the experiment with P. aeruginosa MP-3; < 4 µg/mL with E. coli MP-4; 4 to 32 µg/mL (≈ 5.99 to 47.9 µM) in the experiment with K. pneumoniae MP-648.
`CO[C@]1(C)C[C@@H](C)CN(C)[C@@H](CCCN2CCC(C)(C)CC2)COC(=O)C(C)(C)C(=O)[C@H](C)[C@H]1O[C@@H]1O[C@H](C)C[C@H](N(C)C)[C@H]1O` [Compound 128, (3S,6R,8R,9R,10R)-9-(((2S,3R,4S,6R)-4-(dimethylamino)-3-hydroxy-6-methyltetrahydro-2H-pyran-2-yl)oxy)-3-(3-(4,4-dimethylpiperidin-1-yl)propyl)-8-methoxy-4,6,8,10,12,12-hexamethyl-1-oxa-4-azacyclotridecane-11,13-dione]: the MIC in the experiment with A. baumannii MP-15 is > 32 µg/mL; against K. pneumoniae MP-546, < 4 µg/mL; with S. aureus MP-12 it was 4 to 32 µg/mL (≈ 6.12 to 48.9 µM); against P. aeruginosa MP-3, > 32 µg/mL; in the experiment on E. coli MP-4, < 4 µg/mL; in the experiment on K. pneumoniae MP-648, < 4 µg/mL.
Take `C=C(C[C@@H]1COC(=O)C(C)(C)C(=O)[C@H](C)[C@@H](O[C@@H]2O[C@H](C)C[C@H](N(C)C)[C@H]2O)[C@](C)(OC)C[C@@H](C)CN1C)CN(CCC)CCC` [Compound 2]: the MIC with A. baumannii MP-15 is > 32 µg/mL; against K. pneumoniae MP-546, > 32 µg/mL; with S. aureus MP-12, > 32 µg/mL; with P. aeruginosa MP-3, > 32 µg/mL; in the experiment with E. coli MP-4, 4 to 32 µg/mL (≈ 6.12 to 48.9 µM); with K. pneumoniae MP-648 it was > 32 µg/mL.
Take `CO[C@]1(C)C[C@@H](C)CN(C)[C@H](CC2CCN(Cc3ccco3)CC2)COC(=O)C(C)(C)C(=O)[C@H](C)[C@H]1O[C@@H]1O[C@H](C)C[C@H](N(C)C)[C@H]1O` [Compound 62]: the MIC was 4 to 32 µg/mL (≈ 5.9 to 47.2 µM) in the experiment on A. baumannii MP-15; < 4 µg/mL in the experiment on K. pneumoniae MP-546; 4 to 32 µg/mL (≈ 5.9 to 47.2 µM) with S. aureus MP-12; > 32 µg/mL with P. aeruginosa MP-3; < 4 µg/mL against E. coli MP-4; < 4 µg/mL against K. pneumoniae MP-648.
As to `CCCN1C[C@H](C)C[C@@](C)(OC)[C@H](O[C@@H]2O[C@H](C)C[C@H](N(C)C)[C@H]2O)[C@@H](C)C(=O)C(C)(C)C(=O)OC[C@H]1CCCN1Cc2ccccc2C1` [Compound 145, (3R,6R,8R,9R,10R)-9-(((2S,3R,4S,6R)-4-(dimethylamino)-3-hydroxy-6-methyltetrahydro-2H-pyran-2-yl)oxy)-3-(3-(isoindolin-2-yl)propyl)-8-methoxy-6,8,10,12,12-pentamethyl-4-propyl-1-oxa-4-azacyclotridecane-11,13-dione], the MIC is > 32 µg/mL in the experiment on A. baumannii MP-15; < 4 µg/mL in the experiment on K. pneumoniae MP-546; < 4 µg/mL in the experiment with S. aureus MP-12; < 4 µg/mL with P. aeruginosa MP-3; < 4 µg/mL in the experiment on E. coli MP-4; < 4 µg/mL in the experiment on K. pneumoniae MP-648.
As to `CCCN1C[C@H](C)C[C@@](C)(OC)[C@H](O[C@@H]2O[C@H](C)C[C@H](N(C)C)[C@H]2O)[C@@H](C)C(=O)C(C)(C)C(=O)OC[C@@H]1CCCN(C)C(C)C` [Compound 18, (3S,6R,8R,9R,10R)-9-(((2S,3R,4S,6R)-4-(dimethylamino)-3-hydroxy-6-methyltetrahydro-2H-pyran-2-yl)oxy)-3-(3-(isopropyl(methyl)amino)propyl)-8-methoxy-6,8,10,12,12-pentamethyl-4-propyl-1-oxa-4-azacyclotridecane-11,13-dione], the MIC is > 32 µg/mL with A. baumannii MP-15; < 4 µg/mL in the experiment with K. pneumoniae MP-546; < 4 µg/mL in the experiment with S. aureus MP-12; > 32 µg/mL against P. aeruginosa MP-3; < 4 µg/mL against E. coli MP-4; < 4 µg/mL against K. pneumoniae MP-648.
As to `CCCN1C[C@H](C)C[C@@](C)(OC)[C@H](O[C@@H]2O[C@H](C)C[C@H](N(C)C)[C@H]2O)[C@@H](C)C(=O)C(C)(C)C(=O)OC[C@H]1CCCN1CCCC1` [Compound 144, (3R,6R,8R,9R,10R)-9-(((2S,3R,4S,6R)-4-(dimethylamino)-3-hydroxy-6-methyltetrahydro-2H-pyran-2-yl)oxy)-8-methoxy-6,8,10,12,12-pentamethyl-4-propyl-3-(3-(pyrrolidin-1-yl)propyl)-1-oxa-4-azacyclotridecane-11,13-dione], the MIC with A. baumannii MP-15 was > 32 µg/mL; in the experiment on K. pneumoniae MP-546, < 4 µg/mL; with S. aureus MP-12, < 4 µg/mL; against P. aeruginosa MP-3, < 4 µg/mL; with E. coli MP-4 it was < 4 µg/mL; in the experiment with K. pneumoniae MP-648, < 4 µg/mL.
On to `CO[C@]1(C)C[C@@H](C)CN(C)[C@@H](CCCN2CCC(O)CC2)COC(=O)C(C)(C)C(=O)[C@H](C)[C@H]1O[C@@H]1O[C@H](C)C[C@H](N(C)C)[C@H]1O` [Compound 92, (3S,6R,8R,9R,10R)-9-(((2S,3R,4S,6R)-4-(dimethylamino)-3-hydroxy-6-methyltetrahydro-2H-pyran-2-yl)oxy)-3-(3-(4-hydroxypiperidin-1-yl)propyl)-8-methoxy-4,6,8,10,12,12-hexamethyl-1-oxa-4-azacyclotridecane-11,13-dione], for which the MIC is > 32 µg/mL with A. baumannii MP-15; 4 to 32 µg/mL (≈ 6.23 to 49.9 µM) with K. pneumoniae MP-546; > 32 µg/mL in the experiment on S. aureus MP-12; > 32 µg/mL against P. aeruginosa MP-3; < 4 µg/mL against E. coli MP-4; 4 to 32 µg/mL (≈ 6.23 to 49.9 µM) against K. pneumoniae MP-648.
On to `CCC(CC)CN1CCC(C[C@@H]2COC(=O)C(C)(C)C(=O)[C@H](C)[C@@H](O[C@@H]3O[C@H](C)C[C@H](N(C)C)[C@H]3O)[C@](C)(OC)C[C@@H](C)CN2C)CC1` [Compound 58], for which the MIC in the experiment with A. baumannii MP-15 is > 32 µg/mL; with K. pneumoniae MP-546, < 4 µg/mL; in the experiment with S. aureus MP-12 it was 4 to 32 µg/mL (≈ 5.87 to 46.9 µM); with P. aeruginosa MP-3, > 32 µg/mL; with E. coli MP-4, < 4 µg/mL; against K. pneumoniae MP-648 it was < 4 µg/mL.
As to `CO[C@]1(C)C[C@@H](C)CN(C)[C@@H](CCCN2CCC2)COC(=O)C(C)(C)C(=O)[C@H](C)[C@H]1O[C@@H]1O[C@H](C)C[C@H](N(C)C)[C@H]1O` [Compound 160, (3S,6R,8R,9R,10R)-3-(3-(azetidin-1-yl)propyl)-9-(((2S,3R,4S,6R)-4-(dimethylamino)-3-hydroxy-6-methyltetrahydro-2H-pyran-2-yl)oxy)-8-methoxy-4,6,8,10,12,12-hexamethyl-1-oxa-4-azacyclotridecane-11,13-dione], the MIC in the experiment with A. baumannii MP-15 is > 32 µg/mL; in the experiment on K. pneumoniae MP-546 it was < 4 µg/mL; in the experiment with S. aureus MP-12, 4 to 32 µg/mL (≈ 6.69 to 53.5 µM); in the experiment with P. aeruginosa MP-3 it was > 32 µg/mL; in the experiment on E. coli MP-4, < 4 µg/mL; against K. pneumoniae MP-648, 4 to 32 µg/mL (≈ 6.69 to 53.5 µM).
For `CCCCCCCN1CCC(C[C@@H]2COC(=O)C(C)(C)C(=O)[C@H](C)[C@@H](O[C@@H]3O[C@H](C)C[C@H](N(C)C)[C@H]3O)[C@](C)(OC)C[C@@H](C)CN2C)CC1` [Compound 56], the MIC was > 32 µg/mL with A. baumannii MP-15; < 4 µg/mL in the experiment with K. pneumoniae MP-546; 4 to 32 µg/mL (≈ 5.75 to 46 µM) with S. aureus MP-12; > 32 µg/mL against P. aeruginosa MP-3; < 4 µg/mL with E. coli MP-4; < 4 µg/mL with K. pneumoniae MP-648.
